Data: article PMC4468608, “A distinct p53 target gene set predicts for response to the selective p53–HDM2 inhibitor NVP-CGM097” (eLife, 2015)

Test system: cell lines from the Cancer Cell Line Encyclopedia (CCLE)
Test: High-throughput cell viability assay, CCLE cell line panel (n = 356)
Format: cell-based, human
Description: Cell lines were partitioned into sensitive and insensitive groups based on compound potency (IC50). […] All other cell lines were obtained from ATCC (American Type Culture Collection), DSMZ (Deutsche Sammlung von Mikroorganismen und Zellkulturen), and HSRRB (Health Science Research Resources Bank) and cultured in RPMI or Dulbecco's modified Eagle's medium plus 10% FBS (Invitrogen, Carlsbad, CA) at 37°C, 5% CO2.

[1] = PE/CA-PJ34 (clone C12), TP53 MUT
[2] = cell line A172, central_nervous_system, TP53 WT
[3] = cell line BICR 31, upper_aerodigestive_tract, TP53 MUT
[4] = cell line CAL-85-1, breast, TP53 MUT
[5] = cell line CAMA-1, breast, TP53 MUT
[6] = cell line CCK-81, large_intestine, TP53 MUT
[7] = cell line COV504, ovary, TP53 MUT
[8] = cell line Capan-2, pancreas, TP53 WT
[9] = cell line ES-2, ovary, TP53 MUT
[10] = cell line ESS-1, endometrium, TP53 MUT
[11] = cell line HEC-108, endometrium, TP53 MUT
[12] = cell line HEC-265, endometrium, TP53 WT
[13] = cell line HSC-2, upper_aerodigestive_tract, TP53 MUT
[14] = cell line Hs 618.T, lung, TP53 WT
[15] = cell line Hs 888.T, bone, TP53 WT
[16] = cell line Hs 944.T, skin, TP53 WT
[17] = cell line IM95, stomach, TP53 WT

For COc1cc2c(cc1OC(C)C)[C@H](c1ccc(Cl)cc1)N(c1ccc(N(C)C[C@H]3CC[C@H](N4CCNC(=O)C4)CC3)cc1)C(=O)C2 [NVP-CFC218], the Amax (ONS-76, TP53 WT) was -16.12%, the sensitivity call (ONS-76, TP53 WT) was “insensitive (Sensitivity call for each compound was applied according to a cut-off of 4 µM for IC50 and -50% for Amax)” and the Amax (OV-90, TP53 MUT) was -1.39%. For the same compound, the sensitivity call (OV-90, TP53 MUT) was “insensitive (Sensitivity call for each compound was applied according to a cut-off of 4 µM for IC50 and -50% for Amax)”, the Amax (P3HR-1, TP53 MUT) was -48.91% and the sensitivity call (P3HR-1, TP53 MUT) was “insensitive (Sensitivity call for each compound was applied according to a cut-off of 4 µM for IC50 and -50% for Amax)”. For the same compound, the Amax (P31/FUJ, TP53 MUT) was 4.23%, the sensitivity call (P31/FUJ, TP53 MUT) was “insensitive (Sensitivity call for each compound was applied according to a cut-off of 4 µM for IC50 and -50% for Amax)” and the Amax (PA-TU-8902, TP53 MUT) was 0.96%. For the same compound, the sensitivity call (PA-TU-8902, TP53 MUT) was “insensitive (Sensitivity call for each compound was applied according to a cut-off of 4 µM for IC50 and -50% for Amax)”, the Amax [1] was 1.01% and the sensitivity call [1] was “insensitive (Sensitivity call for each compound was applied according to a cut-off of 4 µM for IC50 and -50% for Amax)”. The Amax (PK-45H, TP53 WT) was -18.84%, the sensitivity call (PK-45H, TP53 WT) was “insensitive (Sensitivity call for each compound was applied according to a cut-off of 4 µM for IC50 and -50% for Amax)” and the Amax (PL-21, TP53 MUT) was -37.95%. The sensitivity call (PL-21, TP53 MUT) was “insensitive (Sensitivity call for each compound was applied according to a cut-off of 4 µM for IC50 and -50% for Amax)”, the Amax (QGP-1, TP53 WT) was 6.30% and the sensitivity call (QGP-1, TP53 WT) was “insensitive (Sensitivity call for each compound was applied according to a cut-off of 4 µM for IC50 and -50% for Amax)”. For the same compound, the Amax (Raji, TP53 MUT) was -0.41%, the sensitivity call (Raji, TP53 MUT) was “insensitive (Sensitivity call for each compound was applied according to a cut-off of 4 µM for IC50 and -50% for Amax)” and the Amax (SCC-4, TP53 MUT) was -11.24%. For the same compound, the sensitivity call (SCC-4, TP53 MUT) was “insensitive (Sensitivity call for each compound was applied according to a cut-off of 4 µM for IC50 and -50% for Amax)”, the Amax (SCC-9, TP53 MUT) was 10.57% and the sensitivity call (SCC-9, TP53 MUT) was “insensitive (Sensitivity call for each compound was applied according to a cut-off of 4 µM for IC50 and -50% for Amax)”. The Amax (SK-N-FI, TP53 MUT) was -7.80%, the sensitivity call (SK-N-FI, TP53 MUT) was “insensitive (Sensitivity call for each compound was applied according to a cut-off of 4 µM for IC50 and -50% for Amax)” and the Amax (SNU-475, TP53 MUT) was -7.74%. For the same compound, the sensitivity call (SNU-475, TP53 MUT) was “insensitive (Sensitivity call for each compound was applied according to a cut-off of 4 µM for IC50 and -50% for Amax)”, the Amax (SU-DHL-8, TP53 MUT) was 11.70% and the sensitivity call (SU-DHL-8, TP53 MUT) was “insensitive (Sensitivity call for each compound was applied according to a cut-off of 4 µM for IC50 and -50% for Amax)”. The Amax (SW579, TP53 MUT) was -2.22%, the sensitivity call (SW579, TP53 MUT) was “insensitive (Sensitivity call for each compound was applied according to a cut-off of 4 µM for IC50 and -50% for Amax)” and the Amax (SW 1271, TP53 MUT) was -7.26%. For the same compound, the sensitivity call (SW 1271, TP53 MUT) was “insensitive (Sensitivity call for each compound was applied according to a cut-off of 4 µM for IC50 and -50% for Amax)”, the Amax (SW 1990, TP53 MUT) was -0.73% and the sensitivity call (SW 1990, TP53 MUT) was “insensitive (Sensitivity call for each compound was applied according to a cut-off of 4 µM for IC50 and -50% for Amax)”. The Amax (TE-1, TP53 MUT) was -0.82%, the sensitivity call (TE-1, TP53 MUT) was “insensitive (Sensitivity call for each compound was applied according to a cut-off of 4 µM for IC50 and -50% for Amax)” and the Amax (TE-5, TP53 MUT) was 31.38%. For the same compound, the sensitivity call (TE-5, TP53 MUT) was “insensitive (Sensitivity call for each compound was applied according to a cut-off of 4 µM for IC50 and -50% for Amax)”, the Amax (U-87 MG, TP53 WT) was -45.86% and the sensitivity call (U-87 MG, TP53 WT) was “insensitive (Sensitivity call for each compound was applied according to a cut-off of 4 µM for IC50 and -50% for Amax)”. The Amax (WM-266-4, TP53 WT) was -75.96%, the sensitivity call (WM-266-4, TP53 WT) was “sensitive (Sensitivity call for each compound was applied according to a cut-off of 4 µM for IC50 and -50% for Amax)” and the Amax (WM-983B, TP53 MUT) was -25.79%. For the same compound, the sensitivity call (WM-983B, TP53 MUT) was “insensitive (Sensitivity call for each compound was applied according to a cut-off of 4 µM for IC50 and -50% for Amax)”, the Amax (YKG1, TP53 MUT) was -29.61% and the sensitivity call (YKG1, TP53 MUT) was “insensitive (Sensitivity call for each compound was applied according to a cut-off of 4 µM for IC50 and -50% for Amax)”. The “NVP- CFC218 Amax (%)” value [2] was -49.68%, the “NVP- CFC218 sensitivity call” value [2] was “insensitive (Sensitivity call for each compound was applied according to a cut-off of 4 µM for IC50 and -50% for Amax)” and the “NVP- CFC218 Amax (%)” value [3] was -33.34%. For the same compound, the “NVP- CFC218 sensitivity call” value [3] was “insensitive (Sensitivity call for each compound was applied according to a cut-off of 4 µM for IC50 and -50% for Amax)”, the “NVP- CFC218 Amax (%)” value (cell line C3A, liver, TP53 WT) was -7.36% and the “NVP- CFC218 sensitivity call” value (cell line C3A, liver, TP53 WT) was “insensitive (Sensitivity call for each compound was applied according to a cut-off of 4 µM for IC50 and -50% for Amax)”. For the same compound, the “NVP- CFC218 Amax (%)” value (cell line C32, skin, TP53 WT) was -3.08%, the “NVP- CFC218 sensitivity call” value (cell line C32, skin, TP53 WT) was “insensitive (Sensitivity call for each compound was applied according to a cut-off of 4 µM for IC50 and -50% for Amax)” and the “NVP- CFC218 Amax (%)” value [4] was -3.57%. The “NVP- CFC218 sensitivity call” value [4] was “insensitive (Sensitivity call for each compound was applied according to a cut-off of 4 µM for IC50 and -50% for Amax)”, the “NVP- CFC218 Amax (%)” value [5] was -26.17% and the “NVP- CFC218 sensitivity call” value [5] was “insensitive (Sensitivity call for each compound was applied according to a cut-off of 4 µM for IC50 and -50% for Amax)”. For the same compound, the “NVP- CFC218 Amax (%)” value [6] was 4.13%, the “NVP- CFC218 sensitivity call” value [6] was “insensitive (Sensitivity call for each compound was applied according to a cut-off of 4 µM for IC50 and -50% for Amax)” and the “NVP- CFC218 Amax (%)” value [7] was -21.97%. The “NVP- CFC218 sensitivity call” value [7] was “insensitive (Sensitivity call for each compound was applied according to a cut-off of 4 µM for IC50 and -50% for Amax)”, the “NVP- CFC218 Amax (%)” value [8] was -4.99% and the “NVP- CFC218 sensitivity call” value [8] was “insensitive (Sensitivity call for each compound was applied according to a cut-off of 4 µM for IC50 and -50% for Amax)”. The “NVP- CFC218 Amax (%)” value [9] was -22.65%, the “NVP- CFC218 sensitivity call” value [9] was “insensitive (Sensitivity call for each compound was applied according to a cut-off of 4 µM for IC50 and -50% for Amax)” and the “NVP- CFC218 Amax (%)” value [10] was 0.05%. For the same compound, the “NVP- CFC218 sensitivity call” value [10] was “insensitive (Sensitivity call for each compound was applied according to a cut-off of 4 µM for IC50 and -50% for Amax)”, the “NVP- CFC218 Amax (%)” value [11] was -7.25% and the “NVP- CFC218 sensitivity call” value [11] was “insensitive (Sensitivity call for each compound was applied according to a cut-off of 4 µM for IC50 and -50% for Amax)”. The “NVP- CFC218 Amax (%)” value [12] was -37.19%, the “NVP- CFC218 sensitivity call” value [12] was “insensitive (Sensitivity call for each compound was applied according to a cut-off of 4 µM for IC50 and -50% for Amax)” and the “NVP- CFC218 Amax (%)” value [13] was 8.13%. The “NVP- CFC218 sensitivity call” value [13] was “insensitive (Sensitivity call for each compound was applied according to a cut-off of 4 µM for IC50 and -50% for Amax)”, the “NVP- CFC218 Amax (%)” value [14] was -49.34% and the “NVP- CFC218 sensitivity call” value [14] was “insensitive (Sensitivity call for each compound was applied according to a cut-off of 4 µM for IC50 and -50% for Amax)”. The “NVP- CFC218 Amax (%)” value [15] was -45.50%, the “NVP- CFC218 sensitivity call” value [15] was “insensitive (Sensitivity call for each compound was applied according to a cut-off of 4 µM for IC50 and -50% for Amax)” and the “NVP- CFC218 Amax (%)” value [16] was -32.86%. For the same compound, the “NVP- CFC218 sensitivity call” value [16] was “insensitive (Sensitivity call for each compound was applied according to a cut-off of 4 µM for IC50 and -50% for Amax)”, the “NVP- CFC218 Amax (%)” value [17] was 33.79% and the “NVP- CFC218 sensitivity call” value [17] was “insensitive (Sensitivity call for each compound was applied according to a cut-off of 4 µM for IC50 and -50% for Amax)”. The “NVP- CFC218 Amax (%)” value (cell line JHOS-2, ovary, TP53 MUT) was -32.44%.
